Assay results taken from the NIST ThermoML archive (doi:10.1016/j.fluid.2010.07.015).
± gives the expanded uncertainty stated by the source.

Test: wn = mass fraction of the nth substance listed
Settings: 101 kPa, Radial Heat Flow Method

[Al] [aluminum] + [Sn]
thermal conductivity (323 K, Crystal, w1 = 0.022): 98.8 ± 22 W/m/K | thermal conductivity (323 K, Crystal, w1 = 0.25): 139.3 ± 33 W/m/K | thermal conductivity (323 K, Crystal, w1 = 0.5): 191.7 ± 43 W/m/K | thermal conductivity (323 K, Crystal, w1 = 0.75): 235.5 ± 52 W/m/K | thermal conductivity (343 K, Crystal, w1 = 0.022): 97.4 ± 23 W/m/K | thermal conductivity (343 K, Crystal, w1 = 0.25): 136.8 ± 30 W/m/K | thermal conductivity (343 K, Crystal, w1 = 0.5): 185.3 ± 44 W/m/K | thermal conductivity (343 K, Crystal, w1 = 0.75): 233.7 ± 52 W/m/K | thermal conductivity (363 K, Crystal, w1 = 0.005): 83.5 ± 22 W/m/K | thermal conductivity (363 K, Crystal, w1 = 0.022): 93.3 ± 22 W/m/K | thermal conductivity (363 K, Crystal, w1 = 0.25): 135.9 ± 31 W/m/K | thermal conductivity (363 K, Crystal, w1 = 0.5): 180.6 ± 42 W/m/K | thermal conductivity (363 K, Crystal, w1 = 0.75): 228.2 ± 52 W/m/K | thermal conductivity (383 K, Crystal, w1 = 0.005): 79.5 ± 19 W/m/K | thermal conductivity (383 K, Crystal, w1 = 0.022): 92.7 ± 20 W/m/K | thermal conductivity (383 K, Crystal, w1 = 0.25): 132.3 ± 30 W/m/K | thermal conductivity (383 K, Crystal, w1 = 0.5): 177 ± 40 W/m/K | thermal conductivity (383 K, Crystal, w1 = 0.75): 224.4 ± 51 W/m/K | thermal conductivity (403 K, Crystal, w1 = 0.005): 78.7 ± 17 W/m/K | thermal conductivity (403 K, Crystal, w1 = 0.022): 92.9 ± 21 W/m/K | thermal conductivity (403 K, Crystal, w1 = 0.25): 130.5 ± 31 W/m/K | thermal conductivity (403 K, Crystal, w1 = 0.5): 174.6 ± 40 W/m/K | thermal conductivity (403 K, Crystal, w1 = 0.75): 220.9 ± 49 W/m/K | thermal conductivity (423 K, Crystal, w1 = 0.005): 78.5 ± 17 W/m/K | thermal conductivity (423 K, Crystal, w1 = 0.022): 90.5 ± 21 W/m/K | thermal conductivity (423 K, Crystal, w1 = 0.25): 125.4 ± 30 W/m/K | thermal conductivity (423 K, Crystal, w1 = 0.5): 170.6 ± 40 W/m/K | thermal conductivity (423 K, Crystal, w1 = 0.75): 217.6 ± 50 W/m/K | thermal conductivity (423 K, Crystal, w1 = 1): 302.9 ± 70 W/m/K | thermal conductivity (443 K, Crystal, w1 = 0.005): 77.8 ± 18 W/m/K | thermal conductivity (443 K, Crystal, w1 = 0.022): 88.2 ± 21 W/m/K | thermal conductivity (443 K, Crystal, w1 = 0.25): 123.9 ± 30 W/m/K | thermal conductivity (443 K, Crystal, w1 = 0.5): 166.6 ± 41 W/m/K | thermal conductivity (443 K, Crystal, w1 = 0.75): 211.4 ± 60 W/m/K | thermal conductivity (463 K, Crystal, w1 = 0.005): 76.3 ± 17 W/m/K | thermal conductivity (463 K, Crystal, w1 = 0.022): 86.3 ± 22 W/m/K | thermal conductivity (463 K, Crystal, w1 = 0.25): 118 ± 29 W/m/K | thermal conductivity (463 K, Crystal, w1 = 0.5): 160.1 ± 44 W/m/K | thermal conductivity (463 K, Crystal, w1 = 0.75): 207 ± 48 W/m/K | thermal conductivity (473 K, Crystal, w1 = 1): 288.3 ± 64 W/m/K | thermal conductivity (483 K, Crystal, w1 = 0.005): 75.8 ± 22 W/m/K | thermal conductivity (483 K, Crystal, w1 = 0.022): 82.7 ± 24 W/m/K | thermal conductivity (483 K, Crystal, w1 = 0.25): 116.5 ± 29 W/m/K | thermal conductivity (483 K, Crystal, w1 = 0.5): 152.6 ± 52 W/m/K | thermal conductivity (483 K, Crystal, w1 = 0.75): 196.2 ± 69 W/m/K | thermal conductivity (493 K, Crystal, w1 = 0.005): 69.7 W/m/K | thermal conductivity (493 K, Crystal, w1 = 0.022): 80.3 ± 26 W/m/K | thermal conductivity (493 K, Crystal, w1 = 0.25): 112.3 ± 53 W/m/K | thermal conductivity (493 K, Crystal, w1 = 0.5): 142 ± 50 W/m/K | thermal conductivity (493 K, Crystal, w1 = 0.75): 188.5 W/m/K | thermal conductivity (501 K, Liquid, w1 = 0.005): 73.8 W/m/K | thermal conductivity (523 K, Crystal, w1 = 1): 278.6 ± 62 W/m/K | thermal conductivity (573 K, Crystal, w1 = 1): 261.8 ± 66 W/m/K | thermal conductivity (623 K, Crystal, w1 = 1): 255.7 ± 80 W/m/K | thermal conductivity (673 K, Crystal, w1 = 1): 244.8 ± 84 W/m/K | thermal conductivity (723 K, Crystal, w1 = 1): 241.4 ± 78 W/m/K | thermal conductivity (773 K, Crystal, w1 = 1): 238.6 ± 64 W/m/K | thermal conductivity (823 K, Crystal, w1 = 1): 227.4 ± 68 W/m/K | thermal conductivity (873 K, Crystal, w1 = 1): 226.1 ± 64 W/m/K | thermal conductivity (923 K, Crystal, w1 = 1): 208.8 ± 69 W/m/K | thermal conductivity (933 K, Liquid, w1 = 1): 235 ± 78 W/m/K

[Sn] [tin] + [Al]
thermal conductivity (373 K, Crystal, w2 = 0): 67.2 ± 28 W/m/K | thermal conductivity (393 K, Crystal, w2 = 0): 65.2 ± 25 W/m/K | thermal conductivity (413 K, Crystal, w2 = 0): 63.3 ± 26 W/m/K | thermal conductivity (433 K, Crystal, w2 = 0): 61.7 ± 22 W/m/K | thermal conductivity (453 K, Crystal, w2 = 0): 62.5 ± 23 W/m/K | thermal conductivity (473 K, Crystal, w2 = 0): 60.6 ± 21 W/m/K | thermal conductivity (504 K, Liquid, w2 = 0): 67.2 W/m/K
